According to patent US7923450B2, “Modulators for amyloid beta” (Hoffmann-La Roche Inc., priority 2008, dated 2011):
Counter-ions that a name gives are not always drawn.

System: γ-secretase
Assay: Cellular γ-secretase assay (Aβ42 secretion)
Format: cell-based
Settings: inhibition of Aβ42 secretion; human neuroglioma H4 cells overexpressing human APP; 22 hrs incubation; read-out: EC50 in vitro
Protocol: Cellular γ-Secretase Assay
Human neuroglioma H4 cells overexpressing human APP were plated at 30,000 cells/well/200 μl in 96-well plates in IMDM media containing 10% FCS, 0.2 mg/l Hygromycin B and incubated for 2 h at 37° C., 5% CO2 prior to adding test compounds.
Compounds for testing were dissolved in 100% Me2SO yielding in a 10 mM stock solution. Typically 12 μl of these solutions were further diluted in 1000 μl of IMDM media (w/o FCS,). Sub sequential 1:1 dilutions gave a ten point dose response curve. 100 μl of each dilution was added to the cells in 96-well plates. Appropriate controls using vehicle only and reference compound were applied to this assay. The final concentration of Me2SO was 0.4%.
After incubation for 22 hrs at 37° C., 5% CO2, 50 μl supernatant was transferred into round-bottom 96-well polypropylene plates for detection of Aβ42. 50 μl assay buffer (50 mM Tris/Cl, pH 7.4, 60 mM NaCl, 0.5% BSA, 1% TWEEN 20) was added to the wells followed by the addition of 100 μl of detection antibody (ruthenylated Aβ42-specific antibody BAP15 0.0625 μg/mL in assay buffer). 50 μl of a premix of capture antibody (biotinylated 6E10 antibody, 1 μg/mL) and Steptavidin-coated magnetic beads (Dynal M-280, 0.125 mg/mL) were preincubated for 1 hr at room temperature before adding the assay plates. Assay plates were incubated on a shaker for 3 hrs at room temperature and finally read in the Bioveris M8 Analyser according to the manufacturer's instructions (Bioveris).
EC50 values for inhibition of Aβ42 secretion were calculated by nonlinear regression fit analysis using XLfit 4.0 software (IDBS).

SMILES	EC50 [µM]
COc1cc(Nc2nc3c(s2)CN(Cc2ccccc2)CC3c2ccc(Cl)c(F)c2)ccc1-n1cnc(C)c1 (centres unmarked) [Example 24, [5-Benzyl-7-(4-chloro-3-fluorophenyl)-4,5,6,7-tetrahydro-thiazolo[5,4-c]pyridin-2-yl]-[3-methoxy-4-(4-methyl-imidazol-1-yl)-phenyl]-amine]	0.07
COc1ccccc1C1CCCc2sc(Nc3ccc(-n4cnc(C)c4)c(OC)c3)nc21 (centres unmarked) [Example 7, [3-Methoxy-4-(4-methyl-imidazol-1-yl)-phenyl]-[4-(2-methoxy-phenyl)-4,5,6,7-tetrahydro-benzothiazol-2-yl]-amine]	0.11
COc1cc(Nc2nc3c(s2)CCCC3(CC#N)c2ccc(Cl)cc2)ccc1-n1cnc(C)c1 (centres unmarked) [Example 19, {4-(4-Chloro-phenyl)-2-[3-methoxy-4-(4-methyl-imidazol-1-yl)-phenylamino]-4,5,6,7-tetrahydro-benzothiazol-4-yl}-acetonitrile]	0.26
COc1cc(Nc2nc3c(s2)CCCC3c2ccccc2)ccc1-c1cnco1 (centres unmarked) [Example 1, (3-Methoxy-4-oxazol-5-yl-phenyl)-(4-phenyl-4,5,6,7-tetrahydro-benzothiazol-2-yl)-amine]	0.3
Cc1ncc(-c2ccc(Nc3nc4c(s3)CCCC4c3ccccc3)cc2)o1 (centres unmarked) [Example 68, [4-(2-Methyl-oxazol-5-yl)-phenyl]-(4-phenyl-4,5,6,7-tetrahydro-benzothiazol-2-yl)-amine]	0.13
COc1cc(Nc2nc3c(s2)CCCC3c2ccccc2Cl)ccc1-n1cnc(C)c1 (centres unmarked) [Example 14, [4-(2-Chloro-phenyl)-4,5,6,7-tetrahydro-benzothiazol-2-yl]-[3-methoxy-4-(4-methyl-imidazol-1-yl)-phenyl]-amine]	0.07
CCOC1CCCc2cnc(Nc3ccc(-n4cnc(C)c4)c(OC)c3)nc21 (centres unmarked) [Example 83, (8-Ethoxy-5,6,7,8-tetrahydro-quinazolin-2-yl)-[3-methoxy-4-(4-methyl-imidazol-1-yl)-phenyl]-amine]	0.45
COc1cc(Nc2ncc3c(n2)C(c2ccccc2)CNC3)ccc1-n1cnc(C)c1 (centres unmarked) [Example 41, [3-Methoxy-4-(4-methyl-imidazol-1-yl)-phenyl]-(8-phenyl-5,6,7,8-tetrahydro-pyrido[4,3-d]pyrimidin-2-yl)-amine hydrochloride]	0.34
COc1cc(Nc2nc3c(s2)CN(Cc2ccccc2)CC3c2ccccc2Cl)ccc1-n1cnc(C)c1 (centres unmarked) [Example 23]	0.07
COc1cc(Nc2nc3c(s2)CCCC3c2cc(Cl)ccc2Cl)ccc1-n1cnc(C)c1 (centres unmarked) [Example 26, [4-(2,5-Dichloro-phenyl)-4,5,6,7-tetrahydro-benzothiazol-2-yl]-[3-methoxy-4-(4-methyl-imidazol-1-yl)-phenyl]-amine]	0.08
COc1cc(Nc2nc3c(s2)CCCC3c2ccc(Cl)cc2Cl)ccc1-n1cnc(C)c1 (centres unmarked) [Example 25, [4-(2,4-Dichloro-phenyl)-4,5,6,7-tetrahydro-benzothiazol-2-yl]-[3-methoxy-4-(4-methyl-imidazol-1-yl)-phenyl]-amine]	0.1
COc1cc(Nc2nc3c(s2)CCCC3c2ccc(Cl)c(C(F)(F)F)c2)ccc1-n1cnc(C)c1 (centres unmarked) [Example 16, [4-(4-Chloro-3-trifluoromethyl-phenyl)-4,5,6,7-tetrahydro-benzothiazol-2-yl]-[3-methoxy-4-(4-methyl-imidazol-1-yl)-phenyl]-amine]	0.09
COc1cc(Nc2nc3c(s2)CCCC3c2ccc(C)c(C(F)(F)F)c2)ccc1-n1cnc(C)c1 (centres unmarked) [Example 9, [3-Methoxy-4-(4-methyl-imidazol-1-yl)-phenyl]-[4-(4-methyl-3-trifluoromethyl-phenyl)-4,5,6,7-tetrahydro-benzothiazol-2-yl]-amine]	0.1
COc1cc(Nc2nc3c(s2)CCCC3c2ccccc2)ccc1-c1cnn(C)c1 (centres unmarked) [Example 91, [3-Methoxy-4-(1-methyl-1H-pyrazol-4-yl)-phenyl]-(4-phenyl-4,5,6,7-tetrahydro-benzothiazol-2-yl)-amine]	0.24
CCN1Cc2cnc(Nc3ccc(-n4cnc(C)c4)c(OC)c3)nc2C(c2ccccc2)C1 (centres unmarked) [Example 44, (6-Ethyl-8-phenyl-5,6,7,8-tetrahydro-pyrido[4,3-d]pyrimidin-2-yl)-[3-methoxy-4-(4-methyl-imidazol-1-yl)-phenyl]-amine]	0.32
COc1cc(Nc2nc3c(s2)CCCC3c2ccccc2)ccc1-c1cnc(C)s1 (centres unmarked) [Example 92, [3-Methoxy-4-(2-methyl-thiazol-5-yl)-phenyl]-(4-phenyl-4,5,6,7-tetrahydro-benzothiazol-2-yl)-amine]	0.252

SMILES	EC50 [µM]
COc1cc(Nc2nc3c(s2)CCCC3c2cc(C(F)(F)F)cc(C(F)(F)F)c2)ccc1-n1cnc(C)c1 (centres unmarked) [Example 29, [4-(3,5-Trifluoromethyl-phenyl)-4,5,6,7-tetrahydro-benzothiazol-2-yl]-[3-methoxy-4-(4-methyl-imidazol-1-yl)-phenyl]-amine]	0.1
COc1cc(Nc2nc3c(s2)CCCC3c2ccccc2)ccc1-c1sc(C)nc1C (centres unmarked) [Example 93, [4-(2,4-Dimethyl-thiazol-5-yl)-3-methoxy-phenyl]-(4-phenyl-4,5,6,7-tetrahydro-benzothiazol-2-yl)-amine]	0.212
COc1cc(Nc2nc3c(s2)CCCC3c2ccccc2)ccc1-n1cnc(C)c1 (centres unmarked) [Example 6, [3-Methoxy-4-(4-methyl-imidazol-1-yl)-phenyl]-(4-phenyl-4,5,6,7-tetrahydro-benzothiazol-2-yl)-amine]	0.04
COc1cc(Nc2nc3c(s2)CCCC3c2ccc(OC(F)(F)F)cc2)ccc1-n1cnc(C)c1 (centres unmarked) [Example 10, [3-Methoxy-4-(4-methyl-imidazol-1-yl)-phenyl]-[4-(4-trifluoromethoxy-phenyl)-4,5,6,7-tetrahydro-benzothiazol-2-yl]-amine]	0.1
c1ccc(C2CCCc3sc(Nc4ccc(-c5ccncc5)cc4)nc32)cc1 (centres unmarked) [Example 94, (4-Phenyl-4,5,6,7-tetrahydro-benzothiazol-2-yl)-(4-pyridin-4-yl-phenyl)-amine]	0.32
Cc1cn(-c2ccc(Nc3nc4c(s3)CCCC4c3ccccc3)cc2C#N)cn1 (centres unmarked) [Example 21, 2-(4-Methyl-imidazol-1-yl)-5-(4-phenyl-4,5,6,7-tetrahydro-benzothiazol-2-ylamino)-benzonitrile]	0.12
COc1cc(Nc2nc3c(s2)CCCC3c2cc(C)ccc2C)ccc1-n1cnc(C)c1 (centres unmarked) [Example 13, [4-(2,5-Dimethyl-phenyl)-4,5,6,7-tetrahydro-benzothiazol-2-yl]-[3-methoxy-4-(4-methyl-imidazol-1-yl)-phenyl]-amine]	0.12
COc1cc(Nc2nc3c(s2)CCCC3c2cc(F)ccc2F)ccc1-n1cnc(C)c1 (centres unmarked) [Example 12, [4-(2,5-Difluoro-phenyl)-4,5,6,7-tetrahydro-benzothiazol-2-yl]-[3-methoxy-4-(4-methyl-imidazol-1-yl)-phenyl]-amine]	0.16
Cc1cn(-c2ccc(Nc3nc4c(s3)CCCC4c3ccccc3)cc2)cn1 (centres unmarked) [Example 18, [4-(4-Methyl-imidazol-1-yl)-phenyl]-(4-phenyl-4,5,6,7-tetrahydro-benzothiazol-2-yl)-amine]	0.13
COc1cc(Nc2ncc3c(n2)C(c2ccccc2)CCC3)ccc1-n1cnc(C)c1 (centres unmarked) [Example 39, [3-Methoxy-4-(4-methyl-imidazol-1-yl)-phenyl]-(8-phenyl-5,6,7,8-tetrahydro-quinazolin-2-yl)-amine]	0.48
COc1cc(Nc2ncc3c(n2)C(c2ccccc2)CN(C(C)=O)C3)ccc1-n1cnc(C)c1 (centres unmarked) [Example 42, 1-{2-[3-Methoxy-4-(4-methyl-imidazol-1-yl)-phenylamino]-8-phenyl-7,8-dihydro-5H-pyrido[4,3-d]pyrimidin-6-yl}-ethanone]	0.5
Cc1cn(-c2ccc(Nc3nc4c(s3)CCCC4c3ccccc3)cc2O)cn1 (centres unmarked) [Example 66, 2-(4-Methyl-imidazol-1-yl)-5-(4-phenyl-4,5,6,7-tetrahydro-benzothiazol-2-ylamino)-phenol]	0.21
COc1cc(Nc2ncc3c(n2)C(c2cc(F)c(F)c(F)c2)CCC3)ccc1-n1cnc(C)c1 (centres unmarked) [Example 69, [3-Methoxy-4-(4-methyl-imidazol-1-yl)-phenyl]-[8-(3,4,5-trifluoro-phenyl)-5,6,7,8-tetrahydro-quinazolin-2-yl]-amine]	0.25
COc1cc(Nc2ncc3c(n2)C(C2CCCCC2)CCC3)ccc1-n1cnc(C)c1 (centres unmarked) [Example 71, (8-Cyclohexyl-5,6,7,8-tetrahydro-quinazolin-2-yl)-[3-methoxy-4-(4-methyl-imidazol-1-yl)-phenyl]-amine]	0.47
COc1cc(Nc2nc3c(s2)CCCC3c2cc(F)cc(F)c2)ccc1-n1cnc(C)c1 (centres unmarked) [Example 28, [4-(3,5-Difluoro-phenyl)-4,5,6,7-tetrahydro-benzothiazol-2-yl]-[3-methoxy-4-(4-methyl-imidazol-1-yl)-phenyl]-amine]	0.12
COc1cc(Nc2ncc3c(n2)C(c2ccccc2)CN(C(=O)OC(C)(C)C)C3)ccc1-n1cnc(C)c1 (centres unmarked) [Example 40, 2-[3-Methoxy-4-(4-methyl-imidazol-1-yl)-phenylamino]-8-phenyl-7,8-dihydro-5H-pyrido[4,3-d]pyrimidine-6-carboxylic acid tert.-butyl ester]	0.27
